Tests used:
[1] = test system: MBP in OPCs; assay: Western blot of MBP in OPCs cultured with AA for 10 days; format: cell-based, rat
Experimental: To further verify the ability of AA to induce MBP protein synthesis, 4×10^6 OPCs were cultured in poly-D lysine coated culture dishes with and without AA for 10 days. The AA concentrations that were studied were as follows: 1, 2.5, 5, 7.5, and 10 μM. The growth medium was changed every three days. […] Upon culture in vitro, OPCs differentiated and became myelin expressing cells, a process which took about 7-14 days.

[2] = test system: cuprizone induced demyelination; assay: Cuprizone induced model of demyelination, myelin staining of corpus callosum; format: in vivo, mice
Experimental: Mice were administered cuprizone for nine weeks, and starting at week 7, mice were treated with 12.5 mg/kg AA daily for three additional weeks. Mice were sacrificed at the end of week 9. […] The data are expressed as the mean pixel intensity of LFB staining normalized to controls measured at two non-overlapping regions of the corpus callosum.
FIG. 11 provides images showing the staining of myelin using LFB stain (top panel) and immunostaining with anti MBP antibodies (bottom panel) in coronal sections of the brain in a 9-week study of naïve (left), cuprizone treated (middle), and cuprizone+AA treated (12.5 mg/kg/day) mice where the cuprizone+AA treated mice were treated with AA in weeks 7-9 of the study. The Y axis represents the mean pixel intensity of staining normalized to controls for LFB and immunostaining for MBP.
The cuprizone induced model of demyelination is a model for toxic demyelination. Torkildsen et al., Acta Neurol Scand Suppl. 188:72-6 (2008); Bai et al., Exp Neurol, 283(Pt A): 330-40 (2016). Cuprizone induces extensive demyelination in large white matter tracts of the CNS. Because the corpus callosum is the largest white matter tract in the brain, it is often used to study demyelination/remyelination in the cuprizone model. In the cuprizone model, animals are fed with cuprizone that causes cell death of oligodendrocytes. […] Deshmukh et al., Nature, 502(7471):327-32 (2014); Magalon et al., Ann Neurol, 71(2):213-26 (2012). Since the model is non-immune mediated, neuro-reparative therapies which promote remyelination can be tested without the interference of markers of inflammation. Lassmann and Bradl, Acta Neuropathol, 133(2):223-44 (2017).
The efficacy of any potential drug is only apparent for a short period of time after cuprizone withdrawal and before the natural process of remyelination catches up. Following cuprizone withdrawal, there is complete remyelination after 6 weeks. Thus, a study was conducted where mice were administered cuprizone in their chow for nine weeks and either AA or a vehicle were administered with the cuprizone starting at 7 weeks. Previous studies have shown that chow mixed with 0.2% cuprizone causes wide spread demyelination and demyelination is seen in the corpus callosum after 6 to 8 weeks on cuprizone. At the beginning of week 7, mice received 12.5 mg/kg of AA dissolved in DMSO sc daily for an additional three weeks. Control mice received an equal volume of DMSO (vehicle). Equal numbers of mice (5/group) were sacrificed and the amount of myelin was determined by staining with luxol fast blue (“LFB”) (chemical stain for myelin) or by staining with anti MBP antibodies at the end of weeks 7, 8 and 9. […]

[3] = test system: experimental allergic encephalitis (EAE); assay: EAE prevention, AA from day of immunization with MOG peptide; format: in vivo, mice
Description: In two experiments, only 2 of 10 mice in the AA treated group developed grade 1 paralysis. In the vehicle treated group, 9 out of 10 mice developed paralysis. Clinical scoring: 1=limp tail, 2=ataxia of gait and paralysis of one or more limbs, 3=paralysis of two or more limbs, 4=weakness of all limbs, 5=death.
The data is expressed as a percent area of myelin loss in three non-contiguous axial sections of the spinal cord; p<0.01 between treated and untreated groups when AA is given beginning day 0 or from the onset of symptoms.
Experimental allergic encephalitis (“EAE”) is an autoimmune inflammatory demyelinating disease of the CNS. For experimental purposes, the disease is induced in animals by immunizing the animals with myelin antigens in adjuvant. […] Ten to twelve days after immunization, paralysis develops in the animals. The degree of paralysis is scored as follows: 1=limp tail, 2=ataxia of gait and paralysis of one or more limbs, 3=paralysis of two or more limbs, 4=weakness of all limbs, 5=death.
The EAE model has been used extensively to examine the efficacy of potential drugs for MS therapy. The efficacy of AA in preventing EAE in mice immunized with MOG peptide in adjuvant was tested. A total of 10 mice were administered 0.25 mg/kg of AA dissolved in DMSO (vehicle) and a total of 10 mice were administered the vehicle alone by intraperitoneal injection daily for the entire length of the study (28 days). AA was obtained from commercial sources. Nine of 10 animals in the vehicle group developed paralytic signs, with a mean maximal paralytic score of 2.66. Two of 10 animals that received AA developed paralysis which was scored as a grade 1 paralysis (P<0.01 treated versus placebo). There was also significant decrease in the loss of myelin in the […]. (FIG. 13).
To confirm that the clinical scores calculated in the EAR experiments reflect pathology, the extent of demyelination in the cervical, thoracolumbar cord of each mouse in the vehicle treated and AA treated groups was examined. […]

[4] = test system: myelin genes Mbp, Mog and Plp and transcription elements Sp1, Sox10 and Purα in OPCs; assay: qPCR analysis of myelin gene expression in OPCs treated with AA; format: cell-based, rat; settings: AA 2.5 μM, 3 hours
Experimental: Mbp=myelin basic protein, Plp=proteolipoprotein, Mog=myelin oligodendrocyte glycoprotein.
(§1) The effect of AA on the expression of myelin genes, MBP, and IL-33 was examined. […] Natarajan et al., PLOS One, 11(3):e0152163 (2016); Sriram et al., Neurology, Abstract presented at the American Academy of Neurology, 2016 (2016). The studies were done in OPCs obtained from rat pups. OPCs were treated with AA (2.5 μM) for 3 hours and message levels were quantified using qPCR analysis. OPCs treated with AA induced the major myelin genes Mbp, Mog and Plp.

[5] = test system: IL-33 expression in OPCs; assay: q-PCR on the induction of IL-33 in OPCs cultured with AA; format: cell-based, rat; settings: 3 h, relative to GAPDH, vehicle = 1.00
Experimental: as §1
The expression of IL-33 induced by AA in OPCs was also examined. […] (FIG. 3). The data is expressed as fold change compared to the control protein GAPDH.

CCCCCCCCCCCCCCCc1cccc(O)c1C(=O)O [AA, anacardic acid]
increase in the expression of MBP (image analysis, FIG. 4) ([1]; OPCs cultured with AA, concentration not given): 2.4 fold
level of MBP (Western blot) ([1]; OPCs, AA 1, 2.5, 5, 7.5 and 10 μM, 10 days): increased the level of MBP in a dose dependent manner
number of oligodendrocytes vs vehicle treated mice ([2]; AA 12.5 mg/kg/day): no difference
increase in LFB staining of corpus callosum vs control mice ([2]; end of week 9, three weeks of AA 12.5 mg/kg sc daily, P<0.02): 10%
expression of myelin vs control mice ([2]; end of weeks 7 and 8, one or two weeks of AA 12.5 mg/kg sc daily): no differences
increase in MBP staining (anti MBP antibodies) vs control mice ([2]; week 9, AA 12.5 mg/kg/day weeks 7-9, P=0.02): 17%
demyelination in the spinal cord ([3]; AA 0.25 mg/kg daily from day 0, vehicle 9.9+/−4.0 percent): no demyelination
animals that developed paralysis ([3]; AA 0.25 mg/kg ip daily for 28 days from immunization, vehicle nine of 10, P<0.01): 2 of 10 and Two of 10
grade of paralysis (clinical score 1-5) ([3]; AA 0.25 mg/kg ip daily from immunization, affected animals): 1
expression of major myelin genes Mbp, Mog and Plp (message levels, qPCR) [4]: induced
expression of transcription elements Sp1, Sox10 and Purα that bind the Mbp promoter (qPCR) [4]: upregulation
Fold change of IL-33 expression ([5]; AA 2.5 μM): 8.54 fold
Fold change of IL-33 expression ([5]; AA 5 μM): 4.77 fold
